Reference: US8835476B2, “Synthesis of novel antimicrobials” (priority 2005, dated 2014)

Columns and labels:
[1] = system: LPS synthesis in E. coli strain D22; assay: In vivo LPS synthesis: [3H]galactose incorporation into acid-precipitable material; format: cell-based
Method: LpxA catalyzes the first step in the synthesis of lipid A (the hydrophobic anchor of LPS), which is essential for the growth and pathogenesis of many gram-negative bacteria. The inhibition of LpxA activity would therefore result in decreased synthesis of LPS. To measure the synthesis of LPS in vivo, the incorporation of radiolabelled galactose into acid-precipitable material was determined. The E. coli strain used for these studies was D22 (obtained from the E. coli Genetic Stock Center), which contains a mutation in the LpxC gene (lpxC101; Normark et al., 1969, J Bacteriol 97, 1334). Strains harbouring this mutation have an increased susceptibility to antibiotics, in addition to producing approximately 30% less LPS (Grundstrom et al., 1980, J Bacteriol 144, 884.). Bacteria were grown in Luria broth to early-log phase, at which point, 500 μl was transferred to a culture tube containing 1 μl of [^3H]galactose (final concentration, 0.2 mM, 20 μCi/μmol) and mixed. Cultures were incubated at 30° C. for 75 minutes with shaking at 220 rpm. Incorporation was terminated by adding 400 μl of labelled culture to 44.4 μl of 100% trichloroacetic acid (TCA, 10% final concentration) in a 1.5 ml microcentrifuge tube. Tubes were vortexed, incubated on ice for 30 minutes, then centrifuged at 14 000 rpm for 5 minutes at room temperature. The pellet was rinsed twice with 1 ml of ice-cold 10% TCA, resuspended in 50 μl of formic acid, and transferred to a scintillation vial for counting.
Compounds to be tested were dissolved in DMSO and added to the bacterial culture prior to labelling with galactose, and LPS synthesis was determined as described previously. The final concentration of DMSO (1%, v/v) had minimal effect on LPS synthesis.

[2] = target: T1, recombinant E. coli LpxA (Escherichia coli, UniProt P0A722); assay: LpxA assay: acyl-UDP-GlcNAc formation from UDP-[3H]GlcNAc, TLC; format: biochemical; details: 5 mM compound; FIG. 8
T1 construct: 6xHis (C); made in house; host or cells: E. coli BL21 (pET23b)
Text: The lpxA gene was amplified from an E. coli genomic library and inserted into a pET23b vector using standard recombinant DNA methodology. The 5′ oligonucleotide for amplification of the LpxA open reading frame was 5′-[…]-3′ (SEQ ID NO. 1) and contains a BamHI restriction enzyme site upstream of the LpxA ATG start codon and the 3′ oligonucleotide was 5′-[…]-3′ (SEQ ID NO. 2) and contains a XhoI restriction enzyme site downstream of the final codon of the LpxA open reading frame. Primers were custom synthesized. The primers were designed such that digestion of the amplification product would result in addition of a C-terminal 6×-His tag in frame with the LpxA open reading frame. Specifically, E. coli genomic DNA was isolated and an amplification reaction was carried out as follows: 33 μl water, 5 μl 10× reaction buffer, 1.5 μl of 50 mM magnesium sulfate, 3 μl of 10 mM dNTPs, 3 μl of a 50 μM solution of the 5′ LpxA primer, 3 μl of a 50 μM solution of the 3′ LpxA primer, 0.5 μl of E. coli genomic DNA solution, and 1 μl of polymerase. The reaction conditions were as follows: 94° C. for 2 minutes; followed by 30 cycles of 94° C. for 30 seconds, 50° C. for 30 seconds, 68° C. for 1.5 minutes, followed by an extension at 68° C. for 7 minutes. The resulting LpxA product was separated from other DNA on a 0.8% agarose gel and isolated from the gel. The LpxA open reading frame was cloned into a topoisomerase I-activated vector and transformed into E. coli. […] The newly synthesized plasmid containing the BamHI- and XhoI-flanked LpxA open reading frame and plasmid pET23a were digested with BamHI and XhoI at 37° C. for 2 hours, DNA was separated by agarose gel electrophoresis, isolated from the gel, and ligated. Ligation reactions were transformed into chemically competent E. coli and plasmid DNA was isolated. Restriction mapping was performed to determine which plasmids contained the LpxA open reading frame. To remove the T7 epitope coding sequence from the 5′end of the LpxA open reading frame, the pET23a plasmid containing the LpxA open reading frame was digested with the restriction enzymes BamHI and XhoI and a pET23b plasmid was digested with BglII and XhoI, DNA was separated by agarose gel electrophoresis, isolated from the gel, and ligated. Ligation reactions were transformed into chemically competent E. coli and plasmid DNA was isolated. Restriction mapping was performed to assess plasmids containing the LpxA open reading frame.
A 5 ml culture of E. Coli BL21 cells expressing the LpxA-6×His plasmid was grown overnight at 37° C. in LB medium containing 50 μg/ml ampicillin and 34 μg/ml chloramphenicol, then subcultured into 500 ml of the same medium and grown at 37° C. until A600=0.6. LpxA expression was induced by addition of 0.5 mM IPTG for three hours. The cells were centrifuged at 7 000×g for 10 minutes at 4° C. and lysed using a mild, nonionic detergent. The soluble fraction containing LpxA was added to 1 ml of nickel affinity resin in a 15 ml Falcon tube; the resin was washed extensively with extraction/wash buffer (50 mM Na-phosphate (pH 7.0) and 300 mM NaCl) prior to use. This mixture was incubated on a rotating platform at low speed for 20 minutes at room temperature. The resin was centrifuged at 1000 rpm in a bench top centrifuge for 2 min, washed twice (10 min each) with 10 ml of extraction/wash buffer, resuspended in 10 ml of extraction/wash buffer, and transferred to a 10 ml polypropylene disposable protein purification column. The column was eluted with 5 ml of 50 mM Na-phosphate (pH 7.0) containing 300 mM NaCl and 150 mM imidazole, collected in 1 ml fractions. The eluate was analysed by SDS-PAGE and was visualised using a protein stain (FIG. 7 inset).
Recombinant Vibrio harveyi acyl carrier protein was prepared from a GST fusion protein as described previously (Flaman et al., 2001). […]

T1 sequence (P0A722 whole entry): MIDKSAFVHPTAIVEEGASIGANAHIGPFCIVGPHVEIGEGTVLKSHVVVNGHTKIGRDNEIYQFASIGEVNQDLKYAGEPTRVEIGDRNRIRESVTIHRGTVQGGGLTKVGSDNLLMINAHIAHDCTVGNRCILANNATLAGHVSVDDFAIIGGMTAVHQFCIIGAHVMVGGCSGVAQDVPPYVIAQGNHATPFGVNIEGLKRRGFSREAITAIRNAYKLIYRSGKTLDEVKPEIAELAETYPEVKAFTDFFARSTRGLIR

Row | SMILES | decrease of LPS synthesis ([1]; 0.1 mM, FIG. 10B) [%] | inhibition at 5000 µM [2] [%] | decrease of LPS synthesis ([1]; 1 mM, FIG. 10A) [%]
1 | COc1ccc(-c2cc(-c3nnn[nH]3)c(-c3ccc(OC)cc3)s2)cc1 [DNM-131D, 5-(2,5-Bis(4-methoxyphenyl)thiophen-3-yl)-1H-tetrazole] | ~50 | > 80 | 
2 | CCOC(=O)c1cccc(-c2cc(-c3nnn[nH]3)c(-c3cccc(C(=O)OCC)c3)s2)c1 [DNM-131I, 5-(2,5-Bis(3-(ethoxylcarbonyl)phenyl)thiophen-3-yl)-1H-tetrazole] |  | > 80 | ~80
